Assay results: patent publication US20250195520A1, “COMBINATION THERAPY USING A PTPN11 INHIBITOR AND AN EGFR INHIBITOR” (NAVIRE PHARMA, INC., priority 2021, published 2025)

Columns and labels:
[1] = test system: DUSP6 mRNA in HCC827-ER1 tumors; experiment: In vivo pharmacodynamic assay, Taqman qRT-PCR of DUSP6 in HCC827-ER1 xenograft tumors; set-up: species or system mouse
Protocol: In vivo modeling, treatment and data analysis. […] Dosing started ˜3 weeks after the subcutaneous implantation of the tumor cells. Dosing volume was 5 mL/kg for each compound, and was adjusted based on individual mouse weight. Dosing and sample harvesting followed the schedule below. There was a 6-hour interval between the morning dose and the afternoon dose, and tumor/plasma samples were harvested at three timepoints during the 24-hour dosing cycle.

[2] = biological target: T1, PTPN11-E76K mutant enzyme (Homo sapiens, UniProt Q06124, E76K); details: e.g. PTPN11-E76K mutant enzyme; stated as 'in certain embodiments'; read-out: IC50 for inhibition of PTPN11; cited from earlier work
T1 sequence (Q06124 1-593 E76K): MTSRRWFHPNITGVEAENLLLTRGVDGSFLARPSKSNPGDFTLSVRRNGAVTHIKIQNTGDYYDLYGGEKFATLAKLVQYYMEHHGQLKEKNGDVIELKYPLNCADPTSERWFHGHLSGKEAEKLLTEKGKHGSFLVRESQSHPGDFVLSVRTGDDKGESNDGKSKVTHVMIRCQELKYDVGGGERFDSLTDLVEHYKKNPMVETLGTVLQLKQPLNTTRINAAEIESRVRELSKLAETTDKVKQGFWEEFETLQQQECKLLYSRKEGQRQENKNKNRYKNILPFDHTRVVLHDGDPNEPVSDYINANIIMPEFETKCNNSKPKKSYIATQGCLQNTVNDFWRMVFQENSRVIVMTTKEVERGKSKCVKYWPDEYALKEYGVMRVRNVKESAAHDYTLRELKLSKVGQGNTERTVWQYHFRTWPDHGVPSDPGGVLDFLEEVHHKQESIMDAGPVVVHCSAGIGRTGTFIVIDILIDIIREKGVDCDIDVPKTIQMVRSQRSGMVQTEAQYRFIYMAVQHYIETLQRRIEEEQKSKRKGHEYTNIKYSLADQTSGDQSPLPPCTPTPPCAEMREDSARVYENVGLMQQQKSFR

HCC4006 cells [3] = experiment: In vitro 3-day proliferation assay (CellTiter-Glo 2.0), HCC4006; format: cell-based; details: Homo sapiens, 72 h, HCC4006 parental cells
Protocol: (§1) Cell lines. The HCC4006 cell line was purchased from ATCC. […] The cells were cultured in RPMI-1640 containing 4 mM glutamax (Thermo Fisher #72400-120)+10% fetal bovine serum (FBS, Sigma #F2442) in 37° C. tissue culture incubator with 5% CO2 (NUAIRE, NU-5510).
(§2) In vitro 3-day proliferation assay. HCC4006 or HCC4006-OsiR cells were plated in 96-well plates (Corning #3603) at 1,500 cells per well in 100 μL of media (RPMI-1640+10% FBS) and allowed to attach overnight. […] Final DMSO concentration was 0.1%. After 3 days of treatment, viable cell numbers were determined using CellTiter-Glo 2.0 cell viability assay (Promega #G9241).
(§3) CellTiter-Glo 2.0 cell viability assay. CellTiter-Glo 2.0 cell viability assay (Promega #G9241) was used to determine the relative viable cell number, following manufacturer's protocols. Briefly, 100 μL CellTiter-Glo reagent was added to each well in the 96-well plate. The plate was put on a VWR advanced 3500 orbital shaker (VWR #89032-096) at 100 rpm shaking for 5 min at room temperature, then incubated at room temperature for 15 min, protected from the light. Afterwards, luminescence was quantified using a PheraStar plate reader (BMG Labtech). The luminescence readings were normalized to the average of DMSO treated samples of each cell line, using Microsoft Excel. Data were plotted in GraphPad Prism 8.0. Non-linear fit was used to generate the dose response curve. […]

HCC4006-OsiR cells [4] = experiment: In vitro 3-day proliferation assay (CellTiter-Glo 2.0), HCC4006-OsiR; format: cell-based, human
Protocol: as §1, §2, §3

HCC4006 cells [5] = experiment: In vitro clonogenic assay (crystal violet, Bliss score), HCC4006; format: cell-based; details: Homo sapiens, 336 h; HCC4006, 14-day clonogenic assay
Protocol: (§4) In vitro clonogenic assay. […] Compounds were prediluted in media at 4x the final concentration, and the final DMSO concentration was 0.2% in 1 mL of media per 24-well. After 12˜14 days of treatment, the plates were stained with crystal violet solution.
(§5) Crystal violet staining, quantification and Bliss score calculation. The 0.1% crystal violet staining solution was prepared by mixing 100 mL of 1% crystal violet solution (Sigma #V5265), 100 mL of 100% ethanol and 800 mL of ddH2O. […] After removal of DPBS, 0.5 mL of 0.1% crystal violet staining solution was added to each 24-well. The plates were incubated at room temperature for 30 min. The staining solution was removed from wells and discarded. Each well was then washed with 1 mL of ddH2O. Afterwards, the plates were dipped in a large bucket filled with tap water 2˜4 times until the supernatant became colorless. […]
(§6) The OD590 readings (multiplied by the dilution factor) were normalized to the average of DMSO treated samples, using Microsoft Excel. The Bliss expectation was calculated with the equation (A+B)−A×B/100, where A and B were the percentage growth inhibition induced by agents A and B at a given dose. Bliss score is the difference between the detected growth inhibition (%) caused by the combination of the two agents and the bliss expectation. […]

HCC4006-OsiR cells [6] = experiment: In vitro clonogenic assay (crystal violet, Bliss score), HCC4006-OsiR; format: cell-based, human; details: 14-day clonogenic assay
Protocol: as §4, §5, §6

Row | Compound | suppression of DUSP6 mRNA levels ([1]; 6-hour and 8-hour after formula (10b) dosing, 100 mg/kg) | suppression of DUSP6 mRNA levels ([1]; across the three timepoints (best suppression), osimertinib 5 mg/kg, formula (10b) 100 mg/kg) | IC50 [2] [nM] | IC50 (HCC4006 cells [3]) [nM] | anti-proliferative effect (HCC4006-OsiR cells [4]; 1,000 nM (the highest concentration tested), HCC4006-OsiR, 3-day) | IC50 (HCC4006-OsiR cells [4]; Homo sapiens, 72 h, HCC4006-OsiR cells, 3-day proliferation assay) [nM] | IC50 (HCC4006 cells [5]) [nM] | shift in IC50, HCC4006-OsiR compared with HCC4006 parental cells (HCC4006-OsiR cells [6]) [fold] | IC50 (HCC4006-OsiR cells [6]; Homo sapiens, 336 h, HCC4006-OsiR) [nM]
1 | Cc1c(N2CCC3(CC2)CO[C@@H](C)[C@H]3N)nc(C)n(-c2cccc(Cl)c2Cl)c1=O (atropisomer, axis not shown; (Ra)) [Formula (10b), 6-((3S,4S)-4-amino-3-methyl-2-oxa-8-azaspiro[4.5]decan-8-yl)-3-(Ra)-(2,3-dichlorophenyl)-2,5-dimethylpyrimidin-4 (3H)-one] | over 90% | suppresses DUSP6 mRNA levels | ≤ 50 | – | – | – | – | – | –
2 | C=CC(=O)Nc1cc(Nc2nccc(-c3cn(C)c4ccccc34)n2)c(OC)cc1N(C)CCN(C)C [Osimertinib] | – | – | – | 27 ± 7.9 | no anti-proliferative effect | > 1000 | 12.2 ± 2.5 | 20 | 257 ± 241
